Patent publication US8901118B2, “Compounds and methods for kinase modulation, and indications therefor” (Plexxikon Inc., priority 2010, dated 2014)

Assays:
BCR-FMS BaF3 cells = molecular target: T1, BCR-FMS BaF3 cells (Homo sapiens, UniProt P07333); experiment: BaF3 BCR-FMS cell proliferation assay (ATPlite); format: cell-based; details: read-out: Inhibition of Cell Proliferation IC50, BCR/BaF3 Fms
T1 construct: fused on or other part: P11274 (Breakpoint cluster region protein)
T1 sequence (P07333 582-910): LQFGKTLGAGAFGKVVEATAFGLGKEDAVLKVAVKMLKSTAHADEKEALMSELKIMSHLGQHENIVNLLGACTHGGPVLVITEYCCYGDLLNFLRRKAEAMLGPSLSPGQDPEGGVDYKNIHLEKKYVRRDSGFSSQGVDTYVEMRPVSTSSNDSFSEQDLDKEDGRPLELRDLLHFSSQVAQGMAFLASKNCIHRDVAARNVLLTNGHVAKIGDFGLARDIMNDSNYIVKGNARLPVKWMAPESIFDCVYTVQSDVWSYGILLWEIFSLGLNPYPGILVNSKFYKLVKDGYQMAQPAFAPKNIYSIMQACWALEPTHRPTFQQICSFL
Description: (§1) Compounds are assessed in a variety of cell based assays. For example BaF3 cells engineered with any of BCR-FMS, BCR-KIT, BCR-FLT3, BCR-NTRK1, BCR-NTRK2, and BCR-NTRK3, are used in cell proliferation assays to assess inhibitory activity of Fms, Kit, Flt-3, TrkA, TrkB, and TrkC, respectively. An MV-4-11 (leukemia) cell proliferation assay is used to assess inhibitory activity in Flt-3, and SKNSH (human neuroblastoma) cell proliferation assay is used to assess efficacy of Fms/Trk inhibitors. Additional cells may be assayed similarly to assess the efficacy of Fms/Trk inhibitors, such as MiaPaCa (human pancreatic cancer) and Capan-1 (human pancreatic carcinoma) cells. Reagent and assay conditions are as follows: • BaF3 cells: • Maintained in RPMI containing 10% FBS, 1% PenStrep, 1% NEAA, and 1% L-Glutamine, supplemented with 1 mg/mL G418 and 5% WEHI-CM (or recombinant murine IL-3). • Confluent cells are split 1:50 to 1:100 every 3-4 days. • MV-4-11 cells: • Maintained in Iscove's Modified Dulbecco's Medium containing 10% FBS. • Confluent cells are split 1:4 every 3-4 days. • SKNSH cells: RPMI containing 10% FBS. On day 1, cells are counted, then centrifuged in a conical tube for 5 minutes at 1000 rpm. The supernatant is removed and cells are re-suspended as follows: • BaF3: resuspend in growth media +1 mg/mL G418 (without WEHFIL-3) to 2×10^5 cells/mL. • MV-4-11: resuspend in growth media to 5×10^5 cells/mL. • SKNSH: resuspend in growth media to 2×10^4 cells/mL. The cells are plated (50 μL, 150 μL for SKNSH cells) in each well of a 96-well dish (Corning 3610) and incubated at 37° C. in 5% CO2 overnight, cells plated to a final concentration of cells as follows: • BaF3: 10,000 cells per well. • MV-4-11: 25,000 cells per well. • SKNSH: 3,000 cells per well. On day 2, compound at a maximum concentration of 5 mM is serially diluted 1:3 for a total of 8 point titration with DMSO as a control. A 1 μL aliquot of each dilution point is added to 249 μL growth media and 50 μL is added to a well containing cells, providing 10 μM compound for the maximum concentration point. The cells are incubated for 3 days at 37° C. in 5% CO2. For SKNSH cells, a 0.75 μL aliquot of appropriate dilution in DMSO is added to 150 μL of cells. On day 5, ATPlite 1 step Luminescence Assay System (Perkin Elmer #6016739) is brought to room temperature along with the cell cultures. ATPlite is added to each well as follows: • BaF3: 25 μL per well. • MV-4-11: 40 μL per well. • SKNSH: 20 μL per well. The cells are incubated at room temperature for 10 minutes, then luminescence is read on Safire reader. The measured luminescence correlates directly with cell number, such that the reading as a function of compound concentration is used to determine the IC50 value.
(§2) It is understood that the results of these assays may vary as assay conditions are varied. Inhibition levels determined under the conditions described herein represent a relative activity for the compounds tested under the specific conditions employed. The cell based assays are likely to show variability due to the complexity of the system and the sensitivity thereof to any changes in the assay conditions. […] Results for compounds that are tested and show substantially no inhibition below the highest tested concentration are represented as “-” in the tables below. In some instances, the compounds were not tested in all of the assays, or assay results were not valid, as indicated by NA in the tables below.

CYP3A4(BFC) = CYP3A4(BFC) (Homo sapiens, UniProt P08684); experiment: CYP3A4(BFC) inhibition; format: in vitro ADME; details: CYP3A4, substrate BFC; read-out: Cyp IC50 3A4(BFC)
Description: (§3) CYP (Cytochrome P450) enzymes are the major drug metabolizing enzymes present in the liver. The inhibition of CYP enzyme activity (IC50) for each of CYP1A2, CYP2C19, CYP2C9, CYP2D6, CYP3A4(BFC) and CYP3A4(BQ) is determined for compounds, where inhibition of metabolism of a known substrate leads to a decrease in the fluorescence of the metabolized product. The fluorescence of the product is monitored as a function of compound concentration. Compounds are dissolved in DMSO to a concentration of 100 mM. These are diluted 1 μL into 82 μL of acetonitrile. An 11 μL aliquot of this solution is then added to 204 μL of cofactor mix (1.3% NADPH Regeneration system Solution A, 1.04% NADPH Regeneration system Solution B from BD Biosciences, 5% acetonitrile and 0.05% DMSO). These are then serially diluted 1:1 (160 μL to 160 μL co-factor mix) for a total of 10 points. A 10 μL aliquot of this final mixture is dispensed into 384 well assay plates and incubated for 10 minutes at 37° C. […] Assay plates are incubated at 37° C. (CYP1A2-15 min; CYP2C9-45 min; CYP2C19, 2D6 and 3A4-30 min) and read in a Tecan Safire 2 plate reader (CYP1A2, 2C19 and 3A4 409 ex/460 em; CYP2C9 and 2D6 409 ex/530 em). The signal versus compound concentration is used to determine the IC50. The enzymes and substrates for this assay are obtained from BD Biosciences.

BCR-NTRK2 BaF3 cells = molecular target: T2, BCR-NTRK2 BaF3 cells (Homo sapiens, UniProt Q16620); experiment: BaF3 BCR-NTRK2 cell proliferation assay (ATPlite); format: cell-based; details: read-out: Inhibition of Cell Proliferation IC50, BCR/BaF3 TrkB
T2 construct: fused on or other part: P11274 (Breakpoint cluster region protein)
Description: as §1, §2

CYP2D6 = CYP2D6 (Homo sapiens, UniProt P10635); experiment: CYP2D6 inhibition (fluorescent substrate AMMC); format: in vitro ADME; details: read-out: Cyp IC50 2D6
Description: as §3

T2 sequence (Q16620 538-807): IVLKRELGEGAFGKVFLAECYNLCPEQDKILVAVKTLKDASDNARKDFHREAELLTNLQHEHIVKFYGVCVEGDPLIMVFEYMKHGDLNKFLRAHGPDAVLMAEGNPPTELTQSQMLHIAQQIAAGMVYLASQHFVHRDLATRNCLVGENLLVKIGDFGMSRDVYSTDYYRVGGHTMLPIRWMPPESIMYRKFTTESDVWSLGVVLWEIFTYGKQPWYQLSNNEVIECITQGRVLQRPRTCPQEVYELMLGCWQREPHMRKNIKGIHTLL
Sequence of CYP3A4(BFC) (P08684 whole entry): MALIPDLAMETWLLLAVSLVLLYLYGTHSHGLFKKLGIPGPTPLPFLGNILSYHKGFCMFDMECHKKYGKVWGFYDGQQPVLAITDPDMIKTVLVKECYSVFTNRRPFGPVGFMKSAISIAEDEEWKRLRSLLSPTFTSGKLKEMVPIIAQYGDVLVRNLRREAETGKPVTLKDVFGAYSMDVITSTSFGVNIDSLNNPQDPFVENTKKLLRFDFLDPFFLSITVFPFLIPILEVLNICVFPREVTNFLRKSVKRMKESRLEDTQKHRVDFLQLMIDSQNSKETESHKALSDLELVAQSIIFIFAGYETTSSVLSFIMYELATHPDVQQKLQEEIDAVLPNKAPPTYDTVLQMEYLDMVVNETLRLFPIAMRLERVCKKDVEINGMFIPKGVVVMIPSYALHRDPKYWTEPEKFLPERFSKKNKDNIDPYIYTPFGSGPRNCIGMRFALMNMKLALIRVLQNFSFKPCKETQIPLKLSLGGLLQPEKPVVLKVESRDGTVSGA
Sequence of CYP2D6 (P10635 whole entry): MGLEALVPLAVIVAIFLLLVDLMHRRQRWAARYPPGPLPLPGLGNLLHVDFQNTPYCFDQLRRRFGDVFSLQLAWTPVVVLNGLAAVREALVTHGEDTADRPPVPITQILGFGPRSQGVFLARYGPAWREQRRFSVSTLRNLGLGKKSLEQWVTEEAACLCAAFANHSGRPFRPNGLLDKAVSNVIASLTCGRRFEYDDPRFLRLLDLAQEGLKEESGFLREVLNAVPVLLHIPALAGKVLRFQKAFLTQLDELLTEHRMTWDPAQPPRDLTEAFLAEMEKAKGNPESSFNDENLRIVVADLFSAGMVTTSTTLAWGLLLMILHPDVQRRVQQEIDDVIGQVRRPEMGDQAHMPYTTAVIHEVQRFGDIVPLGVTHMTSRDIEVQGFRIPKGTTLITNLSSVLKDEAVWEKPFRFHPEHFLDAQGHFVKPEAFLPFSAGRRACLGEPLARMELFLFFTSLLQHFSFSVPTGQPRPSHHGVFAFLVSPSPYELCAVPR

Compound | IC50 (BCR-FMS BaF3 cells) [µM] | IC50 (CYP3A4(BFC)) [µM] | IC50 (BCR-NTRK2 BaF3 cells) [µM] | IC50 (CYP2D6) [µM]
CCCNc1ncnc2[nH]cc(C(=O)c3ccc(Nc4cncc(OC)c4)nc3F)c12 [Compound P-4105, [2-fluoro-6-[(5-methoxy-3-pyridyl)amino]-3-pyridyl]-[4-(propylamino)-7H-pyrrolo[2,3-d]pyrimidin-5-yl]methanone] | < 0.1 | > 10 | < 1 | > 10
Cc1ccc(Nc2ccc(C(=O)c3c[nH]c4ncnc(NC5CCCCC5)c34)c(F)n2)cn1 [Compound P-4111, [4-(cyclohexylamino)-7H-pyrrolo[2,3-d]pyrimidin-5-yl]-[2-fluoro-6-[(6-methyl-3-pyridyl)amino]-3-pyridyl]methanone] | < 0.1 | > 10 | < 0.01 | > 10
CNc1ncnc2[nH]cc(C(=O)c3ccc(Nc4ccc(C5CC5)nc4)nc3F)c12 [Compound P-4094, [6-[(6-cyclopropyl-3-pyridyl)amino]-2-fluoro-3-pyridyl]-[4-(methylamino)-7H-pyrrolo[2,3-d]pyrimidin-5-yl]methanone] | < 0.1 | > 10 | < 0.01 | < 5
CCc1ccc(Nc2ccc(C(=O)c3c[nH]c4ncnc(N[C@@H](C)c5ccc(F)cc5)c34)c(F)n2)cn1 [Compound P-4097, [6-[(6-ethyl-3-pyridyl)amino]-2-fluoro-3-pyridyl]-[4-[[(1S)-1-(4-fluorophenyl)ethyl]amino]-7H-pyrrolo[2,3-d]pyrimidin-5-yl]methanone] | < 0.1 | > 10 | < 0.1 | < 5
O=C(c1ccc(NC2CCC(F)(F)CC2)nc1Cl)c1c[nH]c2ncnc(NC3CC3)c12 [Compound P-4059, [2-chloro-6-[(4,4-difluorocyclohexyl)amino]-3-pyridyl]-[4-(cyclopropylamino)-7H-pyrrolo[2,3-d]pyrimidin-5-yl]methanone] | < 0.1 | > 10 | < 0.1 | > 10
COc1cncc(Nc2ccc(C(=O)c3c[nH]c4ncnc(NC(C)C)c34)c(F)n2)c1 [Compound P-4106, [2-fluoro-6-[(5-methoxy-3-pyridyl)amino]-3-pyridyl]-[4-(isopropylamino)-7H-pyrrolo[2,3-d]pyrimidin-5-yl]methanone] | < 0.1 | > 10 | < 0.1 | < 5
COc1ccc(Nc2ccc(C(=O)c3c[nH]c4ncnc(N5CCCCC5)c34)c(F)n2)cn1 [Compound P-4069, [2-fluoro-6-[(6-methoxy-3-pyridyl)amino]-3-pyridyl]-[4-(1-piperidyl)-7H-pyrrolo[2,3-d]pyrimidin-5-yl]methanone] | > 1 | 5 to 10 | > 1 | > 10

Now from value to compound:

IC50 (BCR-FMS BaF3 cells) [µM] | IC50 (CYP3A4(BFC)) [µM] | IC50 (BCR-NTRK2 BaF3 cells) [µM] | IC50 (CYP2D6) [µM] | Compound
< 0.01 | > 10 | < 0.01 | > 10 | COc1ccc(Nc2ccc(C(=O)c3c[nH]c4ncnc(NC5CCCC5)c34)c(F)n2)cn1 [Compound P-4075, [4-(cyclopentylamino)-7H-pyrrolo[2,3-d]pyrimidin-5-yl]-[2-fluoro-6-[(6-methoxy-3-pyridyl)amino]-3-pyridyl]methanone]
< 0.01 | > 10 | < 0.01 | < 5 | CNc1ncnc2[nH]cc(C(=O)c3ccc(Nc4ccc(C(F)(F)F)nc4)nc3F)c12 [Compound P-4092, [2-fluoro-6-[[6-(trifluoromethyl)-3-pyridyl]amino]-3-pyridyl]-[4-(methylamino)-7H-pyrrolo[2,3-d]pyrimidin-5-yl]methanone]
< 0.01 | > 10 | < 0.01 | > 10 | CCCNc1ncnc2[nH]cc(C(=O)c3ccc(Nc4ccc(OC)nc4)nc3F)c12 [Compound P-4068, [2-fluoro-6-[(6-methoxy-3-pyridyl)amino]-3-pyridyl]-[4-(propylamino)-7H-pyrrolo[2,3-d]pyrimidin-5-yl]methanone]
< 0.01 | > 10 | < 0.01 | > 10 | CCNc1ncnc2[nH]cc(C(=O)c3ccc(Nc4ccc(CC)nc4)nc3F)c12 [Compound P-4123, [4-(ethylamino)-7H-pyrrolo[2,3-d]pyrimidin-5-yl]-[6-[(6-ethyl-3-pyridyl)amino]-2-fluoro-3-pyridyl]methanone]
< 0.01 | > 10 | < 0.01 | < 5 | CCc1ccc(Nc2ccc(C(=O)c3c[nH]c4ncnc(NC5CCC(F)(F)CC5)c34)c(F)n2)cn1 [Compound P-4096, [4-[(4,4-difluorocyclohexyl)amino]-7H-pyrrolo[2,3-d]pyrimidin-5-yl]-[6-[(6-ethyl-3-pyridyl)amino]-2-fluoro-3-pyridyl]methanone]
< 0.01 | < 10 | < 0.01 | > 10 | COc1ccc(Nc2ccc(C(=O)c3c[nH]c4ncnc(NC5CC5)c34)c(F)n2)cn1 [Compound P-4126, [4-(cyclopropylamino)-7H-pyrrolo[2,3-d]pyrimidin-5-yl]-[2-fluoro-6-[(6-methoxy-3-pyridyl)amino]-3-pyridyl]methanone]
< 0.01 | > 10 | < 0.01 | > 10 | CCc1ccc(Nc2ccc(C(=O)c3c[nH]c4ncnc(NC5CCC5)c34)c(F)n2)cn1 [Compound P-4095, [4-(cyclobutylamino)-7H-pyrrolo[2,3-d]pyrimidin-5-yl]-[6-[(6-ethyl-3-pyridyl)amino]-2-fluoro-3-pyridyl]methanone]
